In ChEMBL document CHEMBL4392822, “HSP60/10 chaperonin systems are inhibited by a variety of approved drugs, natural products, and known bioactive molecules” (Bioorg Med Chem Lett, 2019):
Counter-ions that a name gives are not always drawn.

What was measured:
[1] = molecular target: T1, E. coli GroEL/ES (Escherichia coli, UniProt P0A6F5)
Description: (§1) Inhibition of Escherichia coli GroEL expressed in Escherichia coliDH5alpha/Escherichia coli GroES expressed in Escherichia coli BL21 (DE3) assessed as reduction in GroEL/GroES-mediated denatured soluble pig heart MDH refolding by measuring MDH enzyme activity using sodium mesoxalate as substrate after 20 to 40 mins by malachite green dye based spectrometric analysis

[2] = molecular target: Chaperonin GroEL (Escherichia coli (strain K12), UniProt P0A6F5);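 also: inhibition of GroEL ATPase activity with ATP as substrate, 60 min incubation, spectrometric read-out, recombinant enzyme produced in Escherichia coli DH5alpha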
Chaperonin GroEL, sequence (P0A6F5 whole entry): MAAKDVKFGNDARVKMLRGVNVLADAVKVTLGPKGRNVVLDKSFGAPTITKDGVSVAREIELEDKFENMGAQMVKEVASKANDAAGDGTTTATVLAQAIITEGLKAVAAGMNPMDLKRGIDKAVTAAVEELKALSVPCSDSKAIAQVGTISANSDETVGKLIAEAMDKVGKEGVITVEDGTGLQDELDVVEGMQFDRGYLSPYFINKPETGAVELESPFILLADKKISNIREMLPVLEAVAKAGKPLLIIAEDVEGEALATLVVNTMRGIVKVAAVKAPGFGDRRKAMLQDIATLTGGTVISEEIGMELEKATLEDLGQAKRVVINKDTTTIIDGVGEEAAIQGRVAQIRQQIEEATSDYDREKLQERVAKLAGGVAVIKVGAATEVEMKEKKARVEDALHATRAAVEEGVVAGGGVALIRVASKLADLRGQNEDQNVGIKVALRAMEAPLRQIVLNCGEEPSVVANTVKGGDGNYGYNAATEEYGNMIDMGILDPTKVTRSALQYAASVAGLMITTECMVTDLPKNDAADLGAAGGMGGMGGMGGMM
Description: Inhibition of ATPase activity of Escherichia coli GroEL expressed in Escherichia coliDH5alpha incubated for 60 mins using ATP by spectrometric analysis

[3] = molecular target: HSP60/HSP10 (Homo sapiens, UniProt P10809)
HSP60/HSP10 (Homo sapiens, UniProt P10809), sequence (P10809 whole entry): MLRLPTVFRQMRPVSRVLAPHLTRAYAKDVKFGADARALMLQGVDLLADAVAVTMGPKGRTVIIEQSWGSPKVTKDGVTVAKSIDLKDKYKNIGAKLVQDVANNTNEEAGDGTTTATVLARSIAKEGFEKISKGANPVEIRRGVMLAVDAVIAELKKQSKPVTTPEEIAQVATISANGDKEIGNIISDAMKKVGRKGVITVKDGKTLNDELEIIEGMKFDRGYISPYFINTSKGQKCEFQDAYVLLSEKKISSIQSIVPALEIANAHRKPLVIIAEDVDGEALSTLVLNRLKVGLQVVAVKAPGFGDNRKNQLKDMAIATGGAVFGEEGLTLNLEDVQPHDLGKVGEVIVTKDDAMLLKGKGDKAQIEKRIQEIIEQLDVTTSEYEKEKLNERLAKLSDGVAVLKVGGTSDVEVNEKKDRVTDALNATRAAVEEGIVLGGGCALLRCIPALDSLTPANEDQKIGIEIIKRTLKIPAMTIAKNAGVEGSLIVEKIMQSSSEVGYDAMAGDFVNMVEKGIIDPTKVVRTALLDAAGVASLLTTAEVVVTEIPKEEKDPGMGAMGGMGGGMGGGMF
HSP60/HSP10 (Homo sapiens, UniProt P10809), sequence (P61604 whole entry, further chain): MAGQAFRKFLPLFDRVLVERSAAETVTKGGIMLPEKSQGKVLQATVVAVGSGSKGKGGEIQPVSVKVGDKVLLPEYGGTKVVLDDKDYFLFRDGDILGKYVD
Description: (§2) Inhibition of human N-terminal octa-His-tagged HSP60 expressed in Escherichia coli Rosetta(DE3) pLysS/human HSP10 expressed in Escherichia coli Rosetta(DE3) assessed as reduction in HSP60/HSP10-mediated denatured MDH refolding by measuring MDH enzyme activity using sodium mesoxalate as substrate after 40 to 60 mins by malachite green dye based spectrometric analysis

[4] = molecular target: T2, Thiosulfate sulfurtransferase (Homo sapiens, UniProt Q16762); format: ADME;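 also: native rhodanese of unspecified species, enzyme activity read after 45 min by spectrophotometric detection of Fe(SCN)3 colour, IC50 reflects activity reduction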
T2 sequence (Q16762 whole entry): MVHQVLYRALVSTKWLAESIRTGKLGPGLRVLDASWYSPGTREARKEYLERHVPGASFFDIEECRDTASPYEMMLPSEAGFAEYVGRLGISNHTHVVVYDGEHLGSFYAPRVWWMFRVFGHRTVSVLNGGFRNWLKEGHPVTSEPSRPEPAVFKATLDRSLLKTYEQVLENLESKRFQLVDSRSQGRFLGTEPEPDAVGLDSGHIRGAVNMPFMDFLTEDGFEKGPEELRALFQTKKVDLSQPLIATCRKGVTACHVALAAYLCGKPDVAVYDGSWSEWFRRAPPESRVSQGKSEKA
Description: Inhibition of native rhodanese (unknown origin) assessed as reduction in rhodanese enzyme activity after 45 mins by Fe(SCN)3 dye based spectrometric analysis

[5] = molecular target: T1, E. coli GroEL/ES; remark: listed apart in the source
Description: (§3) Inhibition of Escherichia coli GroEL expressed in Escherichia coli DH5alpha/Escherichia coli GroES expressed in Escherichia coli BL21 (DE3) assessed as reduction in GroEL/GroES-mediated denatured rhodanese refolding by measuring rhodanese enzyme activity after 45 mins by Fe(SCN)3 dye based spectrometric analysis

[6] = molecular target: GroEL/GroES; design: species or system Escherichia coli
Description: as §1

[7] = molecular target: HSP60/HSP10 (Homo sapiens, UniProt P10809+P61604)
HSP60/HSP10 (Homo sapiens, UniProt P10809+P61604), sequence (P10809 whole entry): as the sequence (P10809 whole entry) above
HSP60/HSP10 (Homo sapiens, UniProt P10809+P61604), sequence (P61604 whole entry): as the sequence (P61604 whole entry, further chain) above
Description: as §2

[8] = molecular target: GroEL/GroES; design: species or system Escherichia coli; remark: listed apart in the source
Description: as §3

T1 sequence (P0A6F5 whole entry, looked up): as the sequence (P0A6F5 whole entry) above

Row | SMILES | IC50 [1] [µM] | IC50 [2] [µM] | IC50 [3] [µM] | IC50 [4] [µM] | IC50 [5] [µM] | IC50 [6] [µM] | IC50 [7] [µM] | IC50 [8] [µM]
1 | Oc1c(Cl)cc(Cl)cc1Sc1cc(Cl)cc(Cl)c1O [BITHIONOL] | 4.3 | > 250 | 2.8 | > 100 | 13 |  |  | 
2 | C=C1CC[C@H](O)C/C1=C/C=C1\CCC[C@]2(C)[C@@H]([C@H](C)CCCC(C)C)CC[C@@H]12 [CHOLECALCIFEROL] | 22 | > 250 | 11 | > 100 | 31 |  |  | 
3 | COc1cc(/C=C/C(=O)CC(=O)/C=C/c2ccc(O)c(OC)c2)ccc1O [CURCUMIN] | 3.1 | > 250 | 8.3 | 56 | 2.9 |  |  | 
4 | Oc1ccc(Cl)cc1Cc1cc(Cl)ccc1O [DICHLOROPHEN] | 24 | > 250 | 17 | > 100 | 66 |  |  | 
5 | O=C(O[C@@H]1Cc2c(O)cc(O)cc2O[C@@H]1c1cc(O)c(O)c(O)c1)c1cc(O)c(O)c(O)c1 [EPIGALOCATECHIN GALLATE] | 0.36 | > 250 | 2.3 | 7.3 | 0.58 |  |  | 
6 | CC[C@H]1OC(=O)[C@H](C)[C@@H](O[C@H]2C[C@@](C)(OC)[C@@H](O)[C@H](C)O2)[C@H](C)[C@@H](O[C@@H]2O[C@H](C)C[C@H](N(C)C)[C@H]2O)[C@](C)(O)C[C@@H](C)C(=O)[C@H](C)[C@@H](O)[C@]1(C)O [ERYTHROMYCIN] | > 100 | > 250 | > 100 | > 100 | 178 |  |  | 
7 | C=C(CC)C(=O)c1ccc(OCC(=O)O)c(Cl)c1Cl [ETHACRYNIC ACID] | 5.2 | > 250 | 8.5 | > 100 | 4.7 |  |  | 
8 | Cc1cc(-c2ccc(/N=N/c3ccc4c(S(=O)(=O)O)cc(S(=O)(=O)O)c(N)c4c3O)c(C)c2)ccc1/N=N/c1ccc2c(S(=O)(=O)O)cc(S(=O)(=O)O)c(N)c2c1O [EVANS BLUE] | 0.039 | 161 | 0.17 | 8.7 | 0.087 |  |  | 
9 | CN(C)c1ccc(C(=C2C=CC(=[N+](C)C)C=C2)c2ccc(N(C)C)cc2)cc1 [GENTIAN VIOLET] | 11 | > 250 | 5.8 | 16 | 15 |  |  | 
10 | O=c1c(O)c(-c2ccc(O)c(O)c2)oc2c(O)c(O)cc(O)c12 [GOSSYPETIN] | 2.1 | > 250 | 7.5 | 0.33 | 0.39 |  |  | 
11 | Oc1c(Cl)cc(Cl)c(Cl)c1Cc1c(O)c(Cl)cc(Cl)c1Cl [HEXACHLOROPHENE] | 1.4 | 153 | 1.3 | 51 | 4.7 |  |  | 
12 | CC[n+]1c(-c2ccccc2)c2cc(N)ccc2c2ccc(N)cc21 [HOMIDIUM BROMIDE] | > 100 | > 250 | > 100 | 0.83 | 2.4 |  |  | 
13 | CC1(C)CCC2=C(O1)c1ccccc1C(=O)C2=O [LAPACHONE] | 1.3 | > 250 | 2.1 | 0.12 | 0.59 |  |  | 
14 | CC1=CC(=O)c2ccccc2C1=O [MENADIONE] | 9 | > 250 | 15 | 1 | 2.5 |  |  | 
15 | O=c1c(O)c(-c2ccc(O)cc2O)oc2cc(O)cc(O)c12 [MORIN] | 8.5 | > 250 | 11 | 57 | 5.2 |  |  | 
16 | CC(COc1ccccc1)N(CCCl)Cc1ccccc1 (centres undefined) [PHENOXYBENZAMINE HYDROCHLORIDE] | 40 | > 250 | 78 | > 100 | 129 |  |  | 
17 | CC1=CC(=O)c2c(O)cccc2C1=O [PLUMBAGIN] | 3.8 | > 250 | 6.3 | 0.06 | 0.29 |  |  | 
18 | C=CC1=C(C)c2cc3[nH]c(cc4nc(cc5[nH]c(cc1n2)c(C)c5CCC(=O)O)C(CCC(=O)O)=C4C)c(C)c3C=C [PROTOPORPHYRIN] |  | > 250 |  |  |  | 4.4 | 4.9 | 3
19 | O=C1c2ccccc2C(=O)c2c(O)c(O)cc(O)c21 [PURPURIN] | 15 | > 250 | 23 | 2.3 | 4 |  |  | 
20 | O=C(OC[C@H]1O[C@@H](OC(=O)c2cc(O)c(O)c(OC(=O)c3cc(O)c(O)c(O)c3)c2)[C@H](OC(=O)c2cc(O)c(O)c(OC(=O)c3cc(O)c(O)c(O)c3)c2)[C@@H](OC(=O)c2cc(O)c(O)c(OC(=O)c3cc(O)c(O)c(O)c3)c2)[C@@H]1OC(=O)c1cc(O)c(O)c(OC(=O)c2cc(O)c(O)c(O)c2)c1)c1cc(O)c(O)c(OC(=O)c2cc(O)c(O)c(O)c2)c1 [TANNIC ACID] | 0.87 | 137 | 3.8 | 39 | 1 |  |  | 
